Assay results taken from US9801953B2, “Nanoparticles carrying nucleic acid cassettes for expressing RNA” (EMORY UNIVERSITY, priority 2012, dated 2017).

Legend:
[1] = tested on: MIA PaCa-2 cells; experiment: Crystal violet cell proliferation assay; format: cell-based; conditions: Homo sapiens
From the text: Survivin is an anti-cell death gene that confers resistance of cancer cells to therapeutic agents. […] However, SV40-NLS-QD-siRNA nanocassettes could not be used for in vivo delivery due to the lack of specificity. Inhibition of survivin expression led to the activation of the apoptotic cell death since a high level of active caspase 3 (17 KDa fragments) was detected in those cell groups by Western blot analysis (FIG. 6B). Targeted internalization of hATF QD-survivin siRNA expressing nanocassettes were further confirmed in the MIA PaCa-2 cell line (FIG. 6C).
The effect of survivin gene silencing using hATF-QD-Survivin siRNA expressing nanocassettes was examined on cell sensitivity to chemotherapy drugs. […] Pancreatic cancer cells have a low sensitivity to free gemcitabine treatment and 60% of viable cells were detected by cell proliferation assay 72 h following 100 μM of gemcitabine treatment (FIG. 7A).
Crystal violet assay was used to determine the percentage of viable cells. […] Percentage of viable cells in the experimental groups was determined by measurements O.D. at 590 nm using Spectra Max Plus (Molecular Devices, Sunnyvale, Calif.). […] Cell lysates were analyzed for their levels of caspase 3-like activity, which is generated by caspases 3, 7, and 10, using an Ac-DEVD-AFC substrate (Calbiochem, San Diego, Calif.). […]

[2] = mouse, in vivo
Method: The tumor bearing mice then received 200 pmol of QDs carrying luciferase siRNA-expressing DNA cassettes (about 2 nmol of DNA cassettes) by tail vein injection. Before and at different time points following the nanoparticle administration, 2 mg/Kg of luciferin substrate was injected intraperitoneally into the mice for 5 min before each bioluminescence imaging procedure using identical imaging conditions and an Olympus OV-100 small animal imaging system (Olympus America Inc.).

[3] = tested on: luciferase positive MCF-10DCIS tumors; experiment: Bioluminescence imaging of gene silencing in orthotopic breast cancer xenografts; format: in vivo, nude mice
Method: One of the major obstacles in applying siRNA technology to cancer therapy is the low delivery and gene silencing efficiencies in the tumor following systemic administration. To determine the gene silencing efficiency of uPAR-targeted siRNA expressing nanocassettes, hATF-QD-Luc siRNA nanocassettes were injected via the tail vein into nude mice bearing orthotopic luciferase positive MCF-10DCIS tumors. Non-invasive bioluminescence imaging was used at different time points to determine changes in the luciferase activity in the tumors. Twenty-four hours after the injection, the level of luciferase activity decreased by 42% in the mice that received hATF-QD-Luc siRNA nanocassettes.
To determine whether the changes in luciferase activity in the tumor were the result of specific silencing of the luciferase gene, mice bearing MCF-10DCIS tumors in the low abdominal mammary gland received a tail vein injection of either hATF-QD-Luc siRNA or hATF-QD-control siRNA nanocassettes. […] Therefore, the effect of down regulation of luciferase gene expression is likely due to the targeted delivery of luciferase siRNA-expressing nanocassettes into the tumor.

[4] = tested on: firefly luciferase gene stably transfected human breast cancer MCF-10DCIS cell; experiment: Luciferase activity assay in cell lysates; format: cell-based; conditions: MCF-10DCIS cell lysates, 24 h after nanoparticle incubation
From the text: (§1) To further quantify gene silencing efficiency in tumor cells in vitro and the detection of dynamic changes in the inhibition of gene expression in animal tumor models in vivo using bioluminescence imaging, U6-luciferase (Luc) siRNA expressing nanocassettes from p-Silencer-firefly luciferase shRNA plasmid were amplified. […] The inhibitory effect was enhanced as the copy number of Luc siRNA nanocassettes on each QD increased from 2 to 10 or 20 (FIG. 4B).
Following different treatments, cells were collected from culture plates. Cell lysates were examined for luciferase activity using the Single Luciferase Assay System (Promega Corp., Madison, Wis.). The level of the luciferase activity was measured by a luminometer (Lumistar galaxy, BMG, Winooski, VM) for single samples or using the Xenogen IVIS system (Caliper Life Sciences, Mountain View, Calif.) for 96-well plates.

[5] = tested on: MCF-10DCIS human breast cancer cells; experiment: Target specificity / intracellular delivery of nanoparticles, fluorescence microscopy; format: cell-based; conditions: 15 pmol of QDs, 24 h
Method: as §1
Cells were plated in 24-well culture plates for 24 h and then incubated with various nanoparticles at an equal molar concentration (15 pmol of QDs) for 24 h. Control unconjugated DNA cassettes or plasmids were transfected into cells. As a delivery efficiency control, siRNA expressing nanocassettes were also conjugated to QDs with the NLS peptides from SV40 virus, CGGGPKKKRKVE (SEQ ID NO: 10). The peptide sequence was provided by Dr. Steven Dowdy at University of California, San Diego. The SV-40-NLS peptides were synthesized by Genscript USA Inc. (Piscataway, N.J.). Culture plates were then examined using an inverted Olympus fluorescence microscope.

Nc1ccn([C@@H]2O[C@H](CO)[C@@H](O)C2(F)F)c(=O)n1 [gemcitabine]
viability at 1 µM ([1]; 1 μM gemcitabine, free drug treated group, read-out: percentage of viable cells): 94%
viability at 100 µM ([1]; 100 μM gemcitabine, 72 h, read-out: viable cells): 60%

hATF-QD-Luc siRNA nanocassettes: U6-luciferase siRNA expressing DNA nanocassettes conjugated to QDs with human ATF targeting ligands
levels of QD accumulation in the liver and spleen [2]: markedly decreased
decrease in level of luciferase activity in tumor ([3]; 24 h after tail vein injection, 200 pmol QDs): 42%
inhibitory effect on luciferase activity in tumor ([3]; 72 h after injection): further enhanced
decrease in luciferase activity in the tumor ([3]; 72 h after injection, specificity experiment (FIG. 5C)): > 90%
luciferase activity in tumor versus pre-injection ([3]; 140 h after injection): returned to the pre-injection level
inhibitory effect on luciferase activity in the tumor ([3]; 144 h after injection (FIG. 5C)): still strong
duration of inhibitory effect on luciferase activity ([3]; after tail vein injection): over 120 h
luciferase activity [4]: decrease in luciferase activity
entry into cells (intracellular delivery efficiency) [5]: could efficiently enter
